In patent US20210300940A1 (Merck Patent GmbH, priority 2018, published 2021) one finds IC50 data, which are given here for 18 compounds.

SMILES strings stand for the structures. A value given as a limit tells only on which side of the number the result lay.

In one experiment the target is T1, TLR7 (Homo sapiens, UniProt Q9NYK1).
T1 construct: expressed in transfected cells; host or cells: HEK/293 cells carrying TLR7 and an NF-kB luciferase reporter
T1 sequence (Q9NYK1 27-1049): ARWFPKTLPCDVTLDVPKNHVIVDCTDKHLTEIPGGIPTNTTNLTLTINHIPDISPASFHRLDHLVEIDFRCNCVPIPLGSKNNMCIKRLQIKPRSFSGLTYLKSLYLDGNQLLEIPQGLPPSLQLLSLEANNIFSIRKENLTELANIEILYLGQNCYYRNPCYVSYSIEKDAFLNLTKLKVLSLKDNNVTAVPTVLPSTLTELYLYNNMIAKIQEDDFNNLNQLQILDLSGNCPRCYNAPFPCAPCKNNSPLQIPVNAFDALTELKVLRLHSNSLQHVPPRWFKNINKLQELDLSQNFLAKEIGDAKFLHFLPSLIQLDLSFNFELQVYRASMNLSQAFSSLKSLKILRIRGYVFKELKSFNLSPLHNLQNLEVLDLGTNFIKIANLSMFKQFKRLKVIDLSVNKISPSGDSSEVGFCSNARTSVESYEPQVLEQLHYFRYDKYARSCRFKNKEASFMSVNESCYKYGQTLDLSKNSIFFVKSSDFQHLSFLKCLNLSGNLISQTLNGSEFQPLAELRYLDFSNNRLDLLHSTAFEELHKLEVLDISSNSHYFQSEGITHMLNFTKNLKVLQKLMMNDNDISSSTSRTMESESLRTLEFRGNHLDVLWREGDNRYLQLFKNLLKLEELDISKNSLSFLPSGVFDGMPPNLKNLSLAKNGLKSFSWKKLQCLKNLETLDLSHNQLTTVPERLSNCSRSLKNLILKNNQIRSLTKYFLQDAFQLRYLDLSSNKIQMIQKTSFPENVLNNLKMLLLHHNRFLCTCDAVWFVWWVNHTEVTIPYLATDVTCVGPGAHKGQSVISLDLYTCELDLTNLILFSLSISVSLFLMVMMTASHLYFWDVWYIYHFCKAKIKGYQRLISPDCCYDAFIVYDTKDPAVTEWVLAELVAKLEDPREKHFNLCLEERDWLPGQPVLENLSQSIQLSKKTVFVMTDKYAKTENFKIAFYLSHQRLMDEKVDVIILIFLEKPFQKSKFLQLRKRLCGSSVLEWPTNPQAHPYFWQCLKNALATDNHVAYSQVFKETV
Nature of the experiment: HEK/293 TLR7 Cell Assay. Format: cell-based. The following applies: TLR7/NFKb HEK cells, R848 agonist 10 uM final concentration, Steady-Glo readout; read-out: TLR7 potency. As for the experimental part:
(§1) Example 389: HEK/293 TLR7 Cell Assay Into 384 CulturePlates (Corning 3765) was placed 5000 c/w of TLR7/NFKb HEK cells in 30 uL DMEM without Phenol red (gibco #31053-028) and 10% heat inactivated fetal bovine serum, 10% penicillin-streptomycin, and 2 mM L-Glutamine. The cells were incubated for 24 h at 37° C., 10% carbon dioxide and 90% relative humidity. 3 uL of controls, standards, and compounds were dispensed into wells, incubated for 30 min then 3 uL of R848 agonist (10 uM final concentration) was added in 20 mM Hepes. After incubation for 5 hours, they were allowed to stand at room temperature for 15 min. To this was added 10 uL of Steady-Glo substrate reagent and shake assay plate for 5 min at 1500 rpm. The assay plate was allowed to sit for 30 min at room temperature and then the plate was read on EnVision.

In a further experiment the target is T2, TLR8 (Homo sapiens, UniProt Q9NR97).
T2 construct: expressed in transfected cells; host or cells: HEK/293 reporter cells (NF-kB luciferase)
T2 sequence (Q9NR97 27-1041): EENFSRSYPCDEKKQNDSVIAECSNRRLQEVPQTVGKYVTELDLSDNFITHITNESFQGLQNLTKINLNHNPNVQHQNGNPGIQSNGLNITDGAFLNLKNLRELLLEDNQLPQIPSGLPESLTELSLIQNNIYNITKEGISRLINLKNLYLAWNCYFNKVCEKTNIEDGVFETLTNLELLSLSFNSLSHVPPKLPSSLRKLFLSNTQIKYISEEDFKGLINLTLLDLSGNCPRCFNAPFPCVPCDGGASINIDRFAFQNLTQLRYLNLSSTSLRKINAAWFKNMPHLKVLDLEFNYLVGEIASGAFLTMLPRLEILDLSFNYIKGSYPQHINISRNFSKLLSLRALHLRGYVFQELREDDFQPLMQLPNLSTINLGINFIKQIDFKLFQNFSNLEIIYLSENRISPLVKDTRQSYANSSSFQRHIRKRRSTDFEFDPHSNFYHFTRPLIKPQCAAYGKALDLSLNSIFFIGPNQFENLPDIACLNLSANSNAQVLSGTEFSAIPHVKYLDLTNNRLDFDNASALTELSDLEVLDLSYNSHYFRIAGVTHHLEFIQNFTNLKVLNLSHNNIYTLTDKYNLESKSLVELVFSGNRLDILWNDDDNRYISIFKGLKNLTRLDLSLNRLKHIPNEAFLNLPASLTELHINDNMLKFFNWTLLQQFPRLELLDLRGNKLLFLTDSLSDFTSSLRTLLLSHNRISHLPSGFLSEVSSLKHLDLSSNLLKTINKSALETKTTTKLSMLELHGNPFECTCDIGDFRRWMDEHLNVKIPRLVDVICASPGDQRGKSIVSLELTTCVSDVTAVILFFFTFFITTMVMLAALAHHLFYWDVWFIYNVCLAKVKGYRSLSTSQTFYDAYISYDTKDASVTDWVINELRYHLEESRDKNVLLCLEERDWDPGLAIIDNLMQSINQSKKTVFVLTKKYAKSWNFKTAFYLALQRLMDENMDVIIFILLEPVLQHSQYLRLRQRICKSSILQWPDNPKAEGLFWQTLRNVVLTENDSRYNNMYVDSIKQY
Nature of the experiment: HEK/293 TLR8 Cell Assay. Format: cell-based. The following applies: HEK cells, R848 agonist 30 uM final concentration, Steady-Glo readout; read-out: TLR8 potency. As for the experimental part: as §1, with “Example 390:” for “Example 389:”, “HEK/293 TLR8” for “HEK/293 TLR7”, “serum, 1%” for “serum, 10%”, “agonist (30” for “agonist (10”

With `N#Cc1ncc(N2C[C@@H](C(F)(F)F)O[C@@H](C(=O)NCC3(F)CCNCC3)C2)c2cccnc12` (single isomer, unassigned) [Example 317], the IC50 at TLR7 is less than 0.075 µM; on TLR8 it was 0.075 to 0.15 µM.
Take `CC(=O)NCCN[C@@H]1C[C@H](C)CN(c2ccc(C(F)(F)F)c3ncccc23)C1` [Example 37, N-{2-[(3R,5S)-5-Methyl-1-(8-trifluoromethyl-quinolin-5-yl)-piperidin-3-ylamino]-ethyl}-acetamide formic acid]: the IC50 at TLR7 and at TLR8 was less than 0.075 µM throughout.
`C[C@H]1C[C@@H](NC(=O)[C@@](C)(N)CO)CN(c2ccc(C(F)(F)F)c3ncccc23)C1` [Example 178, (S)-2-Amino-3-hydroxy-2-methyl-N-[(3R,5S)-5-methyl-1-(8-trifluoromethyl-quinolin-5-yl)-piperidin-3-yl]-propionamide]: the IC50 at TLR7 is greater than 0.15 µM; on TLR8, less than 0.075 µM.
For `C[C@@H]1CN(c2ccc(C#N)c3ncncc23)C[C@H](CNC(=O)[C@@]2(F)CCNC2)O1` (single isomer, unassigned) [Example 344], the IC50 at TLR7 and on TLR8 was less than 0.075 µM throughout.
Take `C[C@H]1C[C@@H](NCCCS(N)(=O)=O)CN(c2ccc(C(F)(F)F)c3ncccc23)C1` [Example 39, 3-[(3R,5S)-5-Methyl-1-(8-trifluoromethyl-quinolin-5-yl)-piperidin-3-ylamino]-propane-1-sulfonic acid amide]: the IC50 on TLR7 and on TLR8 was less than 0.075 µM in each case.
`CN(C)CCC(=O)N[C@@H]1C[C@H](C(F)(F)F)CN(c2ccc(C(F)(F)F)c3ncccc23)C1` [Example 64, 3-(dimethylamino)-N-[(3R,5S)-5-(trifluoromethyl)-1-[8-(trifluoromethyl)quinolin-5-yl]piperidin-3-yl]propanamide]: the IC50 on TLR7 and on TLR8 was less than 0.075 µM throughout.
As to `C[C@H]1C[C@@H](NC(=O)[C@H](C)N2CCN(C)CC2)CN(c2ccc(C#N)c3nccnc23)C1` (single isomer, unassigned) [Example 91], the IC50 at TLR7 and at TLR8 was less than 0.075 µM throughout.
In the case of `CN1CC[C@@](F)(CNC(=O)[C@@H]2CN(c3cnc(C#N)c4ncccc34)C[C@H](C(F)(F)F)O2)C1` (single isomer, unassigned) [Example 349], the IC50 on TLR7 and on TLR8 was 0.075 to 0.15 µM throughout.
For `C[C@H]1C[C@@H](NC(=O)N[C@@H]2CCCNC2)CN(c2ccc(C(F)(F)F)c3ncccc23)C1` [Example 146, 3-[(3R,5S)-5-methyl-1-[8-(trifluoromethyl)quinolin-5-yl]piperidin-3-yl]-1-[(3R)-piperidin-3-yl]urea], the values for the IC50 on TLR7 and on TLR8 were greater than 0.15 µM and less than 0.075 µM, respectively.
For `CN(C)CCNC(=O)N[C@@H]1C[C@H](C(F)(F)F)CN(c2ccc(C#N)c3nccnc23)C1` [Example 139, 1-[(3R,5S)-1-(8-cyanoquinoxalin-5-yl)-5-(trifluoromethyl)piperidin-3-yl]-3-[2-(dimethylamino)ethyl]urea], in that order: 0.075 to 0.15 µM and 0.075 to 0.15 µM.
The corresponding values for `C[C@@H]1CN(c2cnc(C#N)c3ncccc23)C[C@H](CN2CCNC(=O)C2)O1` [Example 379, 5-[(2R,6S)-2-Methyl-6-(3-oxo-piperazin-1-ylmethyl)-morpholin-4-yl]-naphthyridine-8-carbonitrile] are greater than 0.15 µM and greater than 0.15 µM.
For the compound `CN1CCN(CC(=O)N[C@@H]2C[C@H](C(F)(F)F)CN(c3ccc(C(F)(F)F)c4ncccc34)C2)CC1` [Example 66, 2-(4-methylpiperazin-1-yl)-N-[(3R,5S)-5-(trifluoromethyl)-1-[8-(trifluoromethyl)quinolin-5-yl]piperidin-3-yl]acetamide], the IC50 on TLR7 and at TLR8 was less than 0.075 µM each time.
On to `C[C@@H]1CN(c2ccc(C#N)c3nccnc23)C[C@H](C(=O)NC[C@H](O)CO)O1` [Example 234, (2R,6R)-4-(8-Cyano-quinoxalin-5-yl)-6-methyl-morpholine-2-carboxylic acid ((S)-2,3-dihydroxy-propyl)-amide], for which the IC50 at TLR7 and on TLR8 was 0.075 to 0.15 µM in each case.
In the case of `CC(C(=O)N[C@@H]1C[C@H](C)CN(c2ccc(C(F)(F)F)c3ncccc23)C1)N1CCN(C)CC1` (single isomer, unassigned) [Example 92], the IC50 at TLR7 and at TLR8 was less than 0.075 µM in each case.
With `C[C@H]1C[C@@H](NC(=O)CC2(F)CCN(C)CC2)CN(c2ccc(C(F)(F)F)c3ncccc23)C1` [Example 83, 2-(4-fluoro-1-methylpiperidin-4-yl)-N-[(3R,5S)-5-methyl-1-[8-(trifluoromethyl)quinolin-5-yl]piperidin-3-yl]acetamide], the IC50 on TLR7 and on TLR8 was less than 0.075 µM in each case.
With `N#Cc1ccc(N2C[C@@H](C(=O)NC[C@]3(F)CCNC3)O[C@@H](C(F)(F)F)C2)c2cccnc12` (single isomer, unassigned) [Example 313], the IC50 at TLR7 and on TLR8 was less than 0.075 µM each time.
For `C[C@H]1C[C@@H](NC(=O)[C@H](N)CO)CN(c2ccc(C(F)(F)F)c3ncccc23)C1` [Example 167], the IC50 at TLR7 and at TLR8 was less than 0.075 µM in each case.
Take `C[C@H]1C[C@@H](NCC2CCC(=O)N2)CN(c2ccc(C(F)(F)F)c3ncccc23)C1` (stereo partly drawn) [Example 48, 5-{[(3R,5S)-5-Methyl-1-(8-trifluoromethyl-quinolin-5-yl)-piperidin-3-ylamino]-methyl}-pyrrolidin-2-one]: the IC50 at TLR7 and on TLR8 was less than 0.075 µM throughout.
